According to ChEMBL document CHEMBL1142916, “Synthesis and biological activity of 2,5-diaryl-3-methylpyrimido[4,5-c]quinolin-1(2H)-one derivatives” (Bioorg Med Chem, 2007):
The source made the active and inactive calls. The rule behind the calls is not given here.

Species: Bos taurus
Experiment: Inhibition of bovine brain tubulin polymerization at 27 uM in absence of microtubule associated proteins
Conditions: not given

Activity	Compound
inactive	Cc1nc2c(-c3ccc(Cl)cc3)nc3ccccc3c2c(=O)n1-c1cccc(Br)c1

These compounds were tested on PC-3 (assay: Cytotoxicity against human PC3 cells after 3 days by MTT assay). Conditions: PC-3, 72 h.
Assay type: functional, cell-based

Compound	IC50
Cc1nc2c(-c3ccc(Cl)cc3)nc3ccccc3c2c(=O)n1-c1cccc(Br)c1	1.4 µM
Cc1nc2c(-c3ccc(Cl)cc3)nc3ccccc3c2c(=O)n1-c1ccccc1Cl	2 µM
COc1ccccc1-n1c(C)nc2c(-c3ccc(Cl)cc3)nc3ccccc3c2c1=O	10.5 µM
COc1ccc(-n2c(C)nc3c(-c4ccc(Br)cc4)nc4ccccc4c3c2=O)cc1	2.5 µM
Cc1nc2c(-c3ccc(Br)cc3)nc3ccccc3c2c(=O)n1-c1ccc(Br)cc1	3.3 µM
Cc1nc2c(-c3ccc(Br)cc3)nc3ccccc3c2c(=O)n1-c1cccc(Br)c1	> 10 µM
Cc1nc2c(-c3ccc(Cl)cc3)nc3ccccc3c2c(=O)n1-c1ccc(Cl)cc1	> 28 µM
Cc1ccc(-n2c(C)nc3c(-c4ccc(Cl)cc4)nc4ccccc4c3c2=O)cc1	> 32 µM
Cc1nc2c(-c3ccc(Br)cc3)nc3ccccc3c2c(=O)n1-c1ccccc1Cl	> 28 µM
Cc1nc2c(-c3ccc(Br)cc3)nc3ccccc3c2c(=O)n1-c1cccc(Cl)c1	> 25 µM
Cc1nc2c(-c3ccc(Br)cc3)nc3ccccc3c2c(=O)n1-c1ccccc1Br	> 20 µM
Cc1nc2c(-c3ccc(Cl)cc3)nc3ccccc3c2c(=O)n1-c1ccc(Br)cc1	2.5 µM
Cc1nc2c(-c3ccc(Br)cc3)nc3ccccc3c2c(=O)n1-c1ccc(Cl)cc1	1.9 µM
COc1cc2c(c(OC)c1OC)-c1ccc(OC)c(=O)cc1[C@@H](NC(C)=O)CC2 [COLCHICINE]	0.018 µM
COc1ccccc1-n1c(C)nc2c(-c3ccc(Br)cc3)nc3ccccc3c2c1=O	6.7 µM
Cc1ccc(-n2c(C)nc3c(-c4ccc(Br)cc4)nc4ccccc4c3c2=O)cc1	> 21.3 µM
Cc1ccccc1-n1c(C)nc2c(-c3ccc(Br)cc3)nc3ccccc3c2c1=O	> 30 µM
COc1ccc(-n2c(C)nc3c(-c4ccc(Cl)cc4)nc4ccccc4c3c2=O)cc1	1.6 µM
Cc1nc2c(-c3ccc(Br)cc3)nc3ccccc3c2c(=O)n1-c1ccc(F)cc1	5.5 µM
Cc1ccccc1-n1c(C)nc2c(-c3ccc(Cl)cc3)nc3ccccc3c2c1=O	> 38 µM
Cc1nc2c(-c3ccc(Cl)cc3)nc3ccccc3c2c(=O)n1-c1ccccc1	3.2 µM
Cc1nc2c(-c3ccc(Cl)cc3)nc3ccccc3c2c(=O)n1-c1ccccc1Br	> 42 µM
Cc1nc2c(-c3ccc(Cl)cc3)nc3ccccc3c2c(=O)n1-c1ccc(F)cc1	4 µM
Cc1nc2c(-c3ccc(Br)cc3)nc3ccccc3c2c(=O)n1-c1ccccc1	2.2 µM
Cc1nc2c(-c3ccc(Cl)cc3)nc3ccccc3c2c(=O)n1-c1cccc(Cl)c1	> 26 µM

Species: Bos taurus
Experiment: Inhibition of bovine brain tubulin polymerization at 40 uM absence of microtubule associated proteins
Conditions: not given

Activity	Compound
inactive	COc1ccc(-n2c(C)nc3c(-c4ccc(Cl)cc4)nc4ccccc4c3c2=O)cc1

Species: Bos taurus
Experiment: Inhibition of bovine brain tubulin polymerization at 40 uM in presence of microtubule associated proteins
Conditions: not given

Activity	Compound
inactive	COc1ccc(-n2c(C)nc3c(-c4ccc(Cl)cc4)nc4ccccc4c3c2=O)cc1

Species: Bos taurus
Experiment: Inhibition of bovine brain tubulin polymerization at 27 uM in presence of microtubule associated proteins
Conditions: not given

Activity	Compound
inactive	Cc1nc2c(-c3ccc(Cl)cc3)nc3ccccc3c2c(=O)n1-c1cccc(Br)c1
